Laboratory results: EP0007672A1, “Isocyanoalkenes, process and useful intermediates for their preparation, pharmaceutical and fungicidal preparations containing those isocyanoalkenes and the use of the fungicidal preparations in agriculture” (GIST-BROCADES N.V., priority 1978, dated 1980)
Converted amounts (≈) assume the structure as drawn. Where two headings read alike, the source gives them in different places. Each block holds one compound with its values, some of them ahead of it.

Legend:
Experiment in all cases: MIC (Minimum Inhibitory Concentration)
Type in all cases: cell-based
Bacillus subtilis = conditions: ATCC6633; Bacillus subtilis ATCC 6633
Candida albicans = tested on: Candida albicans
Diplococcus pneumoniae = conditions: Streptococcus pneumoniae; Diplococcus pneumoniae A 2783
Pasteurella multocida = conditions: read-out: MIC values
Proteus morganii = conditions: Morganella morganii; Proteus morganii 2241
Staphylococcus aureus = tested on: Staphylococcus aureus
[1] = tested on: Streptococcus haemolyticus; conditions: read-out: MIC values
Trichophyton equinum = tested on: Trichophyton equinum
[2] = tested on: Trichophyton mentagrophytus
Trichophyton quickeaneum = conditions: read-out: MIC values
Trichophyton rubrum = tested on: Trichophyton rubrum
[3] = tested on: Trichophyton schoenleinii; conditions: read-out: MIC values
[4] = tested on: Trichophyton soudanese joyeux; conditions: read-out: MIC values
Trichophyton tonsurans = conditions: read-out: MIC values
Trichophyton verrucosum = tested on: Trichophyton verrucosum
Trichophyton violoceum = conditions: read-out: MIC values
Fusarium (bulb) = Fusarium (bulb) A 3252
Fusarium (tulip) = Fusarium (tulip) A 3253
Fusarium solani = conditions: Fusarium solani, read-out: MIC values
Rhizoctonia solani = conditions: Rhizoctonia solani, read-out: MIC values

MIC (Bacillus subtilis): 12.5 µg/mL (≈ 47.5 µM)
MIC (Candida albicans; Candida albicans A 7, read-out: MIC values): 6 µg/mL (≈ 22.8 µM)
MIC (Candida albicans; Candida albicans A 3140, read-out: MIC values): 12.5 µg/mL (≈ 47.5 µM)
MIC (Candida albicans; Candida albicans A 3141, read-out: MIC values): > 100 µg/mL
MIC (Candida albicans; Candida albicans A 3142, read-out: MIC values): 50 µg/mL (≈ 190 µM)
MIC (Candida albicans; Candida albicans A 3143, read-out: MIC values): 6 µg/mL (≈ 22.8 µM)
MIC (Candida albicans; Candida albicans A 3144, read-out: MIC values): 50 µg/mL (≈ 190 µM)
MIC (Candida albicans; Candida albicans A 3145, read-out: MIC values): > 100 µg/mL
MIC (Candida albicans; Candida albicans A 3165, read-out: MIC values): 50 µg/mL (≈ 190 µM)
MIC (Candida albicans; Candida albicans A 3166, read-out: MIC values): 12.5 µg/mL (≈ 47.5 µM)
MIC (Candida albicans; Candida albicans A 3167, read-out: MIC values): 50 µg/mL (≈ 190 µM)
MIC (Candida albicans; Candida albicans A 3168, read-out: MIC values): 50 µg/mL (≈ 190 µM)
MIC (Candida albicans; Candida albicans A 3169, read-out: MIC values): 100 µg/mL (≈ 380 µM)
MIC (Candida albicans; Candida albicans A 3171, read-out: MIC values): 50 µg/mL (≈ 190 µM)
MIC (Candida albicans; Candida albicans A 3184, read-out: MIC values): 100 µg/mL (≈ 380 µM)
MIC (Candida albicans; Candida albicans A 3190, read-out: MIC values): 50 µg/mL (≈ 190 µM)
MIC (Candida albicans; Candida albicans A 3191, read-out: MIC values): 50 µg/mL (≈ 190 µM)
MIC (Candida albicans; Candida albicans A 3192, read-out: MIC values): 25 µg/mL (≈ 94.9 µM)
MIC (Candida albicans; Candida albicans A 3194, read-out: MIC values): > 100 µg/mL
MIC (Candida albicans; Candida albicans A 3196, read-out: MIC values): 25 µg/mL (≈ 94.9 µM)
MIC (Diplococcus pneumoniae): 6 µg/mL (≈ 22.8 µM)
MIC (Pasteurella multocida; Pasteurella multocida A 723): 3 µg/mL (≈ 11.4 µM)
MIC (Proteus morganii): 100 µg/mL (≈ 380 µM)
MIC (Staphylococcus aureus; Staphylococcus aureus A 321): 12.5 µg/mL (≈ 47.5 µM)
MIC (Staphylococcus aureus; Staphylococcus aureus A 355): 6 µg/mL (≈ 22.8 µM)
MIC (Staphylococcus aureus; Staphylococcus aureus A 2000): 6 µg/mL (≈ 22.8 µM)
MIC (Trichophyton equinum; Trichophyton equinum 182-76, read-out: MIC values): 3 µg/mL (≈ 11.4 µM)
MIC (Trichophyton equinum; Trichophyton equinum 441-51, read-out: MIC values): < 0.05 µg/mL
MIC (Trichophyton equinum; Trichophyton equinum 856-71, read-out: MIC values): 0.2 µg/mL (≈ 0.759 µM)
MIC ([2]; Trichophyton mentagrophytus 367-68, read-out: MIC values): 0.2 µg/mL (≈ 0.759 µM)
MIC ([2]; Trichophyton mentagrophytus 421-67, read-out: MIC values): 0.8 µg/mL (≈ 3.04 µM)
MIC ([2]; Trichophyton mentagrophytus A 3252, read-out: MIC values): 1.5 µg/mL (≈ 5.7 µM)
MIC ([2]; Trichophyton mentagrophytus R 177, read-out: MIC values): 6 µg/mL (≈ 22.8 µM)
MIC ([2]; Trichophyton mentagrophytus R 178, read-out: MIC values): > 100 µg/mL
MIC ([2]; Trichophyton mentagrophytus RRL 305, read-out: MIC values): 3 µg/mL (≈ 11.4 µM)
MIC (Trichophyton quickeaneum; Trichophyton quickeaneum A 2040): 3 µg/mL (≈ 11.4 µM)
MIC (Trichophyton rubrum; Trichophyton rubrum 218-65, read-out: MIC values): 0.1 µg/mL (≈ 0.38 µM)
MIC (Trichophyton rubrum; Trichophyton rubrum 494-62, read-out: MIC values): 0.8 µg/mL (≈ 3.04 µM)
MIC (Trichophyton rubrum; Trichophyton rubrum A 810, read-out: MIC values): 6 µg/mL (≈ 22.8 µM)
MIC ([3]; Trichophyton schoenleinii 435-63): < 0.05 µg/mL
MIC ([4]; Trichophyton soudanese joyeux 440-63): 3 µg/mL (≈ 11.4 µM)
MIC (Trichophyton tonsurans; Trichophyton tonsurans 561-50): 1.5 µg/mL (≈ 5.7 µM)
MIC (Trichophyton verrucosum; Trichophyton verrucosum 134-66, read-out: MIC values): < 0.05 µg/mL
MIC (Trichophyton verrucosum; Trichophyton verrucosum N 3, read-out: MIC values): 0.1 µg/mL (≈ 0.38 µM)
MIC (Trichophyton violoceum; Trichophyton violoceum 442-62): 0.05 µg/mL (≈ 0.19 µM)
Compound: [C-]#[N+]C(=CC(C)(C)C)S(=O)(=O)c1ccc(C)cc1 [Example 4, 3,3-dimethyl-1-isocyano-1-(4-toluenesulphonyl)-1-butene]
MIC ([1]; Streptococcus haemolyticus A 1088): 1.5 µg/mL (≈ 5.7 µM)

Compound: [C-]#[N+]C(=C1CCCC1)S(=O)(=O)c1ccc(C)cc1 [Example 9, a-cyclopentylidene-a-(4-toluenesulphonyl)-methylisocyanide]
MIC (Candida albicans; read-out: MIC values, Candida albicans A 7): 0.8 µg/mL (≈ 3.06 µM)
MIC (Candida albicans; read-out: MIC values, Candida albicans A 3140): 1.5 µg/mL (≈ 5.74 µM)
MIC (Candida albicans; read-out: MIC values, Candida albicans A 3141): 3 µg/mL (≈ 11.5 µM)
MIC (Candida albicans; read-out: MIC values, Candida albicans A 3142): 1.5 µg/mL (≈ 5.74 µM)
MIC (Candida albicans; read-out: MIC values, Candida albicans A 3143): 0.8 µg/mL (≈ 3.06 µM)
MIC (Candida albicans; read-out: MIC values, Candida albicans A 3144): 1.5 µg/mL (≈ 5.74 µM)
MIC (Candida albicans; read-out: MIC values, Candida albicans A 3145): 1.5 µg/mL (≈ 5.74 µM)
MIC (Candida albicans; read-out: MIC values, Candida albicans A 3165): 3 µg/mL (≈ 11.5 µM)
MIC (Candida albicans; read-out: MIC values, Candida albicans A 3166): 6 µg/mL (≈ 23 µM)
MIC (Candida albicans; read-out: MIC values, Candida albicans A 3167): 3 µg/mL (≈ 11.5 µM)
MIC (Candida albicans; read-out: MIC values, Candida albicans A 3168): 6 µg/mL (≈ 23 µM)
MIC (Candida albicans; read-out: MIC values, Candida albicans A 3169): 3 µg/mL (≈ 11.5 µM)
MIC (Candida albicans; read-out: MIC values, Candida albicans A 3171): 3 µg/mL (≈ 11.5 µM)
MIC (Candida albicans; read-out: MIC values, Candida albicans A 3184): 1.5 µg/mL (≈ 5.74 µM)
MIC (Candida albicans; read-out: MIC values, Candida albicans A 3190): 1.5 µg/mL (≈ 5.74 µM)
MIC (Candida albicans; read-out: MIC values, Candida albicans A 3191): 0.8 µg/mL (≈ 3.06 µM)
MIC (Candida albicans; read-out: MIC values, Candida albicans A 3192): 0.8 µg/mL (≈ 3.06 µM)
MIC (Candida albicans; read-out: MIC values, Candida albicans A 3194): 0.8 µg/mL (≈ 3.06 µM)
MIC (Candida albicans; read-out: MIC values, Candida albicans A 3196): 3 µg/mL (≈ 11.5 µM)
MIC (Fusarium (bulb)): 25 µg/mL (≈ 95.7 µM)
MIC (Fusarium (tulip)): 12.5 µg/mL (≈ 47.8 µM)
MIC (Fusarium solani): 12.5 µg/mL (≈ 47.8 µM)
MIC (Pasteurella multocida; Pasteurella multocida): 3 µg/mL (≈ 11.5 µM)
MIC (Rhizoctonia solani): 1.5 µg/mL (≈ 5.74 µM)
MIC ([1]; Streptococcus): 25 µg/mL (≈ 95.7 µM)
MIC (Trichophyton equinum; read-out: MIC values, Trichophyton equinum 182-76): 3 µg/mL (≈ 11.5 µM)
MIC (Trichophyton equinum; read-out: MIC values, Trichophyton equinum 441-51): 0.1 µg/mL (≈ 0.383 µM)
MIC (Trichophyton equinum; read-out: MIC values, Trichophyton equinum 856-71): < 0.05 µg/mL
MIC ([2]; read-out: MIC values, Trichophyton mentagrophytus 367-68): 3 µg/mL (≈ 11.5 µM)
MIC ([2]; read-out: MIC values, Trichophyton mentagrophytus 421-67): 6 µg/mL (≈ 23 µM)
MIC ([2]; read-out: MIC values, Trichophyton mentagrophytus A 3252): 1.5 µg/mL (≈ 5.74 µM)
MIC ([2]; read-out: MIC values, Trichophyton mentagrophytus R 177): 3 µg/mL (≈ 11.5 µM)
MIC ([2]; read-out: MIC values, Trichophyton mentagrophytus R 178): 12.5 µg/mL (≈ 47.8 µM)
MIC ([2]; read-out: MIC values, Trichophyton mentagrophytus RRL 305): 0.8 µg/mL (≈ 3.06 µM)
MIC (Trichophyton quickeaneum; Trichophyton): 1.5 µg/mL (≈ 5.74 µM)
MIC (Trichophyton rubrum; read-out: MIC values, Trichophyton rubrum 218-65): 0.8 µg/mL (≈ 3.06 µM)
MIC (Trichophyton rubrum; read-out: MIC values, Trichophyton rubrum 494-62): 1.5 µg/mL (≈ 5.74 µM)
MIC (Trichophyton rubrum; read-out: MIC values, Trichophyton rubrum A 810): 0.1 µg/mL (≈ 0.383 µM)
MIC ([3]; Trichophyton schoenleinii): 0.4 µg/mL (≈ 1.53 µM)
MIC ([4]; Trichophyton): 6 µg/mL (≈ 23 µM)
MIC (Trichophyton tonsurans; Trichophyton tonsurans): 6 µg/mL (≈ 23 µM)
MIC (Trichophyton verrucosum; read-out: MIC values, Trichophyton verrucosum 134-66): < 0.05 µg/mL
MIC (Trichophyton verrucosum; read-out: MIC values, Trichophyton verrucosum A 2922): 0.4 µg/mL (≈ 1.53 µM)
MIC (Trichophyton violoceum; Trichophyton): 0.4 µg/mL (≈ 1.53 µM)
